Reference: patent US11919880B2, “HCV protease inhibitors” (The Regents of the University of California, priority 2020, dated 2024)
“And” between values parts separate entries of the source, which are not always exact repeats. Identical values can stand only once. Like-named read-outs stand apart in the source and are kept apart here.

Experiments:
[1] = tested on: sub-genomic HCV GT1b replicon (BM4-5 FEO), GT1b WT; experiment: HCV replicon assay (luciferase antiviral efficacy); format: cell-based, hepatitis C virus; details: BM4-5 FEO cells, 48 h, read-out: EC50 ± SD Gt 1b wt
Description: (§1) The 20 compounds from class C were tested […] for inhibition of viral replication (GT1b wild-type) in BM4-5 FEO cells and for mammalian cell cytotoxicity. The numbers of virus particles were evaluated by quantifying luciferase produced during the virus life cycle^41 while toxicity was evaluated using a cell viability assay. […] Prior to additional biochemical studies, several key chemical properties for each of the Class C molecules were determined.
Replicon construct. The BM4-5 replicon is a sub-genomic HCV GT1b replicon that contains adaptive mutation of serine in the NS5A region^41. The firefly luciferase gene was added into the BM4-5 replicon to generate BM4-5 FEO replicon. The construction procedures have been previously described^42.
(§2) Luciferase antiviral efficacy and cells viability assays. BM4-5 FEO replicon approximately 10,000 cells in 100 μL of medium were seeded into 96-well plates and incubate for 6 h for attachment. Then, the compounds were added at to the wells in specific concentration and incubate for 48 h. The luciferase assay (Bright-Glo; Promega) was carried out according to the manufacturer's instructions. Luciferase activity was determined using a microplate luminometer (Veritas microplate luminometer; Turner Biosystems). For cells viability assays, BM4-5 FEO at the density 10,000 cells in 100 μL medium was incubated at 37° C. for 6 h for attachment, then the compounds were added and incubated for another 48 hours. The number of living cells were measured by Cell Titer-blue assay (Promega). The fluorescence absorption (560Ex/590Em) for 96-well plate was read by Benchmark Scientific MR9600 with. The activity and toxicity of each compound were measured by at least six different concentrations in triplicate.

BM4-5 human liver cells = experiment: CellTiter-Blue cell viability assay; format: cell-based; details: BM4-5 FEO cells, 48 h, read-out: LC50 ± SD
Description: as §1, with “determined. Calculated polar surface area (PSA), lipophilicity (LogP), and molecular weight for each compound (Table IA) complied with the general criteria for drug-like molecules.” for “determined.”
as §2

[2] = molecular target: T1, recombinant HCV NS3/4A GT1b WT (Hepatitis C virus genotype 1b, UniProt Q9WMX2); experiment: biochemical; format: biochemical
T1 construct: recombinant HCV NS3/4A GT1b WT
Description: (§3) In order to validate that this group of molecules elicit their cellular effects via inhibition of the viral protease, we incubated compounds 1, 12 and 22 with recombinant NS3/4A protease GT1b and an inhibitor-resistant mutant containing a D168A mutation. D168 is located in the S2 and S4 sub-pockets and mutations in these sub-pockets can cause significant resistance to the inhibitors resulting in decreased activity of peptidomimetic inhibitors^21,37-38. […] As a control, potency was evaluated using the approved HCV protease inhibitor, simeprevir.
(§4) HCV NS3/4A enzymatic inhibition assay. The activities of two proteases (recombinant HCV NS3/4A GT1b WT and full-length HCV NS3/4A GT1b D168A) were measured using a fluorogenic substrate, Ac-Glu-Glu-Val-Val-Ala-Cys-AMC (Sigma-Aldrich) where AMC corresponds to 7-amino-4-methylcourmarin. Assays were performed in 50 mM HEPES pH 7.4, 15 mM NaCl, 0.01% Triton X-100, 10 mM DTT in a black 384-well microplate (BD Falcon). […] Fluorescence was monitored at excitation and emission wavelengths of 360 nm and 460 nm in a Synergy™ HTX Multi-Mode Microplate Reader (BioTek). Data was visualized using Gen5™ Software (Biotek). The activity of enzyme was calculated from the change in relative fluorescence units (RFU) over time. For inhibition assays, compounds were pre-incubated with enzyme for 240 minutes prior to adding the enzyme/inhibitor mixture to the substrate. All assays were performed in triplicate wells.

[3] = molecular target: T2, full-length HCV NS3/4A GT1b D168A (Hepatitis C virus genotype 1b, UniProt Q9WMX2, D1194A); experiment: biochemical; format: biochemical
T2 construct: full-length HCV NS3/4A GT1b D168A; His tag; made in house; host or cells: E. coli Rosetta 2(DE3)
Description: as §3
(§5) Plasmid construction and purification of HCV NS3/A protein. Drug resistant mutant D168A was generated by mutagenesis using NS3-containing recombinant plasmid (pETDuet-1 Hepatis C Virus NS3/4A, a gift from Michael Johnson, Addgene plasmid #16196) as a template. The single mutation of aspartic acid (D) to alanine (A) was introduced by mutagenesis at position 168 using specific primers (Forward: 5′-[…]-3′ and Reverse: 5′-[…]-3′). The over expression and purification were preformed followed the method that previously described^43. Rosetta 2(DE3) cells (Novagen) containing the modified recombinant plasmid with histidine tag were grown in Lysogeny Broth medium. The over expression was introduced by addition of Isopropyl β-D-1-thiogalactopyranoside (IPTG) to the final concentration of 0.5 mM and the bacteria were incubated at room temperature for 16 h. […] The solution was passed through Ni-NTA column and washed by buffer B (50 mM HEPES, pH 7.6, 500 mM NaCl, 50 mM imidazole, 5 mM β-MCE, 0.2% Triton X-100, and 15% glycerol). The His-tag fused protein was eluted by buffer C (50 mM HEPES, pH 7.6, 500 mM of NaCl, 500 mM of imidazole, 5 mM β-MCE, 0.2% Triton X-100, and 15% glycerol) followed by dialysis using buffer (50 mM HEPES, pH 7.6 and 500 mM of NaCl). Purified NS3/4A protein was concentrated an d buffer exchanged into buffer D (50 mM HEPES, pH 7.6, 500 mM of NaCl, 5 mM β-MCE, 0.2% Triton X-100, and 50% glycerol) using a protein concentrator 10 k (Amicon®).
as §4

[4] = tested on: full-length HCV NS3/4A GT1b D168A; experiment: biochemical; format: biochemical, hepatitis C virus; details: for IC50—D168A/IC50—wt ratio: D168A mutant versus wt protease
Description: as §3, §5, §4

[5] = Potentiometric titration, Sirius T3 instrument; format: physicochemical
From the text: As highlighted in Scheme 1, the tryptophan derived HCV NS3/4 protease inhibitors, 21 and 22, were synthesized starting from 3-(piperidine-1-yl)propan-1-amine (23), which could be accessed in two steps from commercially available N-(bromopropyl)phthalimide and piperidine, and N-Boc protected L-tryptophan (24). Thus, HBTU mediated coupling of […] and 24, followed by N-Boc deprotection and carbamoylation reaction with the appropriate isocyanate provided the desired compounds. 21 and 22. These test compounds were characterized by ^1H-NMR, ^13C-NMR, and HRMS. In addition, experimental pKa values, lipophilicity (LogP), and LogD7.4 of 22 were determined via potentiometric titrations using a Sirius T3 instrument. Compounds 21 and 22, as well as the 20 compounds from the primary screen, were then tested in cell-based assays to evaluate activity against HCV and toxicity to the host cells (Table 2).

bovine trypsin = molecular target: T3, bovine trypsin (Bos taurus, UniProt P00760); experiment: Counter-screening assay, trypsin; format: biochemical; details: 13.08 and 14.68, 5.2 μM of 1, 12, and 22, respectively; 40 nM enzyme
T3 construct: purchased Sigma
Description: (§6) In addition, we tested these compounds for inhibition against the fungal serine protease, proteinase K that is structurally related to several mammalian serine proteases such as the proprotein convertase enzymes and furin^44.
(§7) Counter-screening assay. Counter-screening assays were performed with 40 nM of bovine trypsin (Sigma), pig pancreatic elastase (Sigma), human chymotrypsin and proteinase k and 60 μM of the appropriate fluorogenic substrates for trypsin, elastase, chymotrypsin, and proteinase K are Boc-Leu-Arg-Arg-AMC (trypsin), Me-Arg-Arg-Pro-Val-AMC (elastase) and Suc-Arg-Arg-Pro-Phe-AMC (chymotrypsin and proteinase K). Assays were performed in 50 mM HEPES pH 7.4, 15 mM NaCl, 0.01% Triton X-100 in black 96-well microplates (BD Falcon) at a final volume of 50 μL. The final concentration of DMSO in each well was 2.5%. Fluorescence was measured as outlined above.

pig pancreatic elastase = molecular target: T4, pig pancreatic elastase (Sus scrofa, UniProt P00772); experiment: Counter-screening assay, elastase; format: biochemical; details: 13.08 and 14.68, 5.2 μM of 1, 12, and 22, respectively; 40 nM enzyme
T4 construct: purchased Sigma
Description: as §6, §7

human chymotrypsin = human chymotrypsin (Homo sapiens, UniProt P17538); experiment: Counter-screening assay, chymotrypsin; format: biochemical; details: 13.08 and 14.68, 5.2 μM of 1, 12, and 22, respectively; 40 nM enzyme
Description: as §6, §7

proteinase K = proteinase K (Parengyodontium album, UniProt P06873); experiment: Counter-screening assay, proteinase K; format: biochemical, fungal; details: 13.08 and 14.68, 5.2 μM of 1, 12, and 22, respectively; 40 nM enzyme
Description: as §6, §7

[6] = 40 nM enzyme, 60 μM Ac-Glu-Glu-Val-Val-Ala-Cys-AMC, 240 min pre-incubation, read-out: IC50 GT1b WT
[7] = 40 nM enzyme, 60 μM Ac-Glu-Glu-Val-Val-Ala-Cys-AMC, 240 min pre-incubation, read-out: IC50 GT1b D168A

T1 sequence (Q9WMX2 1658-1711): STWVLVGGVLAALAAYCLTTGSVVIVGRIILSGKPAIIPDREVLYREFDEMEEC
T1 sequence (Q9WMX2 1027-1657): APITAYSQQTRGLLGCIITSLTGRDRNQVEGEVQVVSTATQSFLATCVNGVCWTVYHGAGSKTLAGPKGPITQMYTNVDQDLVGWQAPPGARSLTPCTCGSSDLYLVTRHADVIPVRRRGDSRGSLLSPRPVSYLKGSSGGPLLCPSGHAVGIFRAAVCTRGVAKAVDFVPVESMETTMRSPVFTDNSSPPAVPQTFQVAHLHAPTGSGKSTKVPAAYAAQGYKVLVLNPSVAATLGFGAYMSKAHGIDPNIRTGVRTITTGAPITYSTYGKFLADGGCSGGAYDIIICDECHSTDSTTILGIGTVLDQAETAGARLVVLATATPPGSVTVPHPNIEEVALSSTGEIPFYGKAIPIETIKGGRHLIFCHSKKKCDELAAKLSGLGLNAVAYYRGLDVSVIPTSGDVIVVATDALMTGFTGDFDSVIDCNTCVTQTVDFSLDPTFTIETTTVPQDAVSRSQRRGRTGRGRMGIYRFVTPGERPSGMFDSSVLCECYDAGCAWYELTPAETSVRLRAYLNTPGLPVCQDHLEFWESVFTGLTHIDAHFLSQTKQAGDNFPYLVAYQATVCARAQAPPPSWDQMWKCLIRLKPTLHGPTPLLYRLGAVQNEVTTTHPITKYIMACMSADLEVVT
T2 sequence (Q9WMX2 1027-1657, looked up, stated change not applied): as the sequence (Q9WMX2 1027-1657) above
T2 sequence (Q9WMX2 1658-1711, stated change not applied): as the sequence (Q9WMX2 1658-1711) above
T4 sequence (P00772 27-266): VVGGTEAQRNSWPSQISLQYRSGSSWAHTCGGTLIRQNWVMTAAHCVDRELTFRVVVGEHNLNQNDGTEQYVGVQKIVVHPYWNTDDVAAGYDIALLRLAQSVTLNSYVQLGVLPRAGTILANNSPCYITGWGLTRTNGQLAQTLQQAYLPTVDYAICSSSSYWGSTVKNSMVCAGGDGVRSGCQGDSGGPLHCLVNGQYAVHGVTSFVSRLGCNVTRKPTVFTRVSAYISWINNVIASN
Sequence of human chymotrypsin (P17538 19-263): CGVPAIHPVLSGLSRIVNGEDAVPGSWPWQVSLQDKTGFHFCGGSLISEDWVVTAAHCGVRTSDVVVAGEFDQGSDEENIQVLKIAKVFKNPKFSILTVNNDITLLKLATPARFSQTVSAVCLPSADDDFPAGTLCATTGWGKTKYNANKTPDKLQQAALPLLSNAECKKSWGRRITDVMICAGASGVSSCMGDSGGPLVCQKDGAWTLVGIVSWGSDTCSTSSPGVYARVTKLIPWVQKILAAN
Sequence of proteinase K (P06873 106-384): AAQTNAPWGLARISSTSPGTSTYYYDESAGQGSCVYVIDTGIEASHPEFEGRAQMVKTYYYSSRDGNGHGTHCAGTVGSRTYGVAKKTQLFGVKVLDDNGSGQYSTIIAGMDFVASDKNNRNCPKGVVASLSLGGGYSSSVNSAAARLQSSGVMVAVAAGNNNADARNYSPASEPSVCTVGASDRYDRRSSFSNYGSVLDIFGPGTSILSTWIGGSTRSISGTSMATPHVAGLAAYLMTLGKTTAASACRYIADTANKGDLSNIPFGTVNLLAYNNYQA
T3 sequence (P00760 24-246): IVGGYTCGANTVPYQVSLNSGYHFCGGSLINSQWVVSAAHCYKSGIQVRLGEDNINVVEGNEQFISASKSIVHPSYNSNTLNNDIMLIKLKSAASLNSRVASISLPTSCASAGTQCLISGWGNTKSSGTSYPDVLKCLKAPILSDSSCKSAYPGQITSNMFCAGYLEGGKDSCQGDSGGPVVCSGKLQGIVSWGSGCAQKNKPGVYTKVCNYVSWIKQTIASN

| SMILES | EC50 [1] | CC50 (BM4-5 human liver cells) | further results |
| --- | --- | --- | --- |
| CCOC(=O)C1CCCCN1CCCNC(=O)C(Cc1c[nH]c2ccccc12)NC(=O)Nc1ccccc1Br (centres unmarked) [Compound 17] | 2.98 ± 1.08 µM |  |  |
| O=C(Nc1cccc(Br)c1)N[C@@H](Cc1c[nH]c2ccccc12)C(=O)NCCCN1CCCCC1 [Compound 21] | 1.3 ± 1.25 µM | 29.5 ± 1.48 µM |  |
| CC1CCCCN1CCCNC(=O)C(Cc1c[nH]c2ccccc12)NC(=O)Nc1c(F)cc(Br)cc1F (centres unmarked) [Compound 13] | 35.4 ± 7.71 µM |  |  |
| CC(C)c1ccc(NC(=O)NC(Cc2c[nH]c3ccccc23)C(=O)NCCCN2CCCC[C@@H]2C)cc1 (some centres unmarked) [Compound 12] |  |  | EC50 ([1]; Hepatitis C virus, GT1B): 1.5 ± 0.07 µM; IC50 [2]: 13.1 ± 2.77 µM; IC50 [3]: 11.5 ± 0.55 µM |
| COc1ccc2[nH]cc(CC(NC(=O)Nc3cc(Cl)ccc3Cl)C(=O)NCCCN3CCCCC3C)c2c1 (centres unmarked) [Compound 10] | 33.2 ± 3.17 µM | > 100 µM |  |
| O=C(Nc1ccccc1Br)NC(Cc1c[nH]c2ccccc12)C(=O)NCCCNC1CCCCC1O (centres unmarked) [Compound 18] | 4.58 ± 0.32 µM |  |  |
| CC(C)c1ccc(NC(=O)N[C@@H](Cc2c[nH]c3ccccc23)C(=O)NCCCN2CCCCC2)cc1 [Compound 22] | 0.64 ± 0.13 µM | 47 ± 6.98 µM | IC50 [2, 6]: 5.2 µM and 4.6 µM; Potency lower than simeprevir ([2]; wt protease IC50 compared with simeprevir): 120 fold; IC50 [3, 7]: 5.98 ± 0.43 µM; IC50—D168A/IC50—wt ratio [4]: 1.4; Change in potency, D168A mutant versus wt protease ([4]; result in words): no significant reduction on potency; Experiment value of logP [5]: 4.1; Decrease of trypsin activity (bovine trypsin): did not decrease activity; Decrease of elastase activity (pig pancreatic elastase): did not decrease activity; Decrease of chymotrypsin activity (human chymotrypsin): did not decrease activity; Decrease of proteinase K activity (proteinase K): did not decrease activity |
| C[C@H]1CCCCN1CCCNC(=O)C(Cc1c[nH]c2ccccc12)NC(=O)Nc1cccc(Br)c1 (some centres unmarked) [Compound 1] |  |  | EC50 ([1]; Hepatitis C virus, GT1B): 0.95 ± 0.26 µM; IC50 [2]: 14.7 ± 1.23 µM; IC50 [3]: 11.4 ± 0.45 µM |
| CC1CCCC(C)N1NCCCNC(=O)C(Cc1c[nH]c2ccccc12)NC(=O)Nc1ccccc1Br (centres unmarked) [Compound 14] | 5.15 ± 0.63 µM |  |  |
| Cc1ccc2[nH]cc(CC(NC(=O)Nc3cc(Cl)ccc3Cl)C(=O)NCCCN3CCCCC3C)c2c1 (centres unmarked) [Compound 7] | 6.35 ± 1.11 µM |  |  |
| CC(=O)c1cccc(NC(=O)NC(Cc2c[nH]c3ccccc23)C(=O)NCCCN2CCCCC2C)c1 (centres unmarked) [Compound 8] | 10.9 ± 4.93 µM | > 100 µM |  |
| CC1CCCCN1CCCNC(=O)C(Cc1c[nH]c2ccc(F)cc12)NC(=O)Nc1cc(Cl)ccc1Cl (centres unmarked) [Compound 2] | 6.12 ± 2.3 µM |  |  |
| O=C(Nc1ccccc1Br)NC(Cc1c[nH]c2ccccc12)C(=O)NCCCNC1CC2CCC1C2 (centres unmarked) [Compound 11] | 5.99 ± 2.61 µM |  |  |
| O=C(Nc1ccccc1Br)NC(Cc1c[nH]c2ccccc12)C(=O)NCCCNC1CCC(O)CC1 (centres unmarked) [Compound 19] | 32.6 ± 14.8 µM | > 100 µM |  |
| CC1CCCCN1CCCNC(=O)C(Cc1c[nH]c2ccccc12)NC(=O)Nc1ccc(N(C)C)cc1 (centres unmarked) [Compound 6] | 63.4 ± 11 µM | > 100 µM |  |
| COc1ccc2c(O[C@@H]3C[C@H]4C(=O)N[C@]5(C(=O)NS(=O)(=O)C6CC6)C[C@H]5/C=C\CCCCN(C)C(=O)[C@@H]4C3)cc(-c3nc(C(C)C)cs3)nc2c1C [Simeprevir, reference compound] |  |  | IC50 [2, 6]: 0.043 µM; IC50 [3, 7]: 0.247 ± 0.39 µM; IC50—D168A/IC50—wt ratio [4]: 5.7 |
| O=C(Nc1cccc(Br)c1)NC(Cc1c[nH]c2ccccc12)C(=O)NCCCNC1CCCCCC1 (centres unmarked) [Compound 15] | 6.82 ± 0.74 µM |  |  |
| COc1ccc(OC)c(NC(=O)NC(Cc2c[nH]c3ccccc23)C(=O)NCCCN2CCCCC2C)c1 (centres unmarked) [Compound 9] | 51.4 ± 15.2 µM | > 100 µM |  |
